Results taken from the supplement of paper PMC10331698.
± gives the standard deviation of the averaged measurements.

Compound: CN(C(=O)C(F)(F)C(F)(F)C(F)(F)F)[Si](C)(C)C [N-Methyl-N-trimethylsilylheptafluorobutyramide] (in DMSO)
Experiment: level (log10 ratio to DMSO vehicle control); higher = higher biomarker level / cell amount than vehicle control
Protocol: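 BioMAP Diversity Plus panel of 12 human primary cell co-culture systems (3C, 4H, LPS, SAg, BT, BF4T, BE3C, CASM3C, HDF3CGF, KF3CT, MyoF, Mphg). Compounds were added 1 h before stimulation and left for 24 h (MyoF 48 h; BT 72 h for soluble read-outs or 6 d for IgG). Biomarkers were read by ELISA, cytotoxicity by SRB, PBMC viability and proliferation by Alamar Blue. Each well value was divided by the mean of 8 DMSO control wells on the same plate and log10 transformed; duplicate blinded samples were tested at 4 concentrations.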

Row | Test System | level (log10) (6700 nM) | level (log10) (20000 nM) | level (log10) (60000 nM)
1 | CASM3C:M-CSF | -0.011 ± 0.0028 | -0.018 ± 0.0042 | 0.0145 ± 0.036
2 | lMphg:SRB-Mphg | 0.0035 ± 0.00071 | 0.002 ± 0.031 | 0.015 ± 0.02
3 | MyoF:CD106/VCAM-1 | -0.0125 ± 0.021 | -0.014 ± 0.024 | -0.017 ± 0.0085
4 | BE3C:tPA | -0.018 ± 0.025 | -0.0275 ± 0.0064 | -0.0195 ± 0.011
5 | lMphg:CCL3/MIP-1alpha | -0.007 ± 0.0057 | -0.018 ± 0.011 | 0.0255 ± 0.032
6 | lMphg:CD40 | -0.008 ± 0.027 | -0.016 | -0.0145 ± 0.022
7 | BE3C:SRB | -0.006 ± 0.0057 | -0.003 ± 0.0028 | 0 ± 0.0028
8 | CASM3C:LDLR | -0.006 ± 0.0099 | -0.0055 ± 0.005 | 0.0255 ± 0.035
9 | MyoF:MMP-1 | -0.007 ± 0.0028 | -0.0055 ± 0.005 | -0.017 ± 0.018
10 | BE3C:Keratin 8/18 | -0.013 ± 0.023 | 0.001 ± 0.013 | 0.019 ± 0.0085
11 | lMphg:CXCL8/IL-8 | -0.0215 ± 0.0078 | 0.009 ± 0.027 | 0.0155 ± 0.025
12 | MyoF:PAI-I | -0.009 ± 0.021 | 0.0095 ± 0.015 | 0.0105 ± 0.0092
13 | lMphg:M-CSF | -0.033 ± 0.014 | -0.018 ± 0.025 | -0.0045 ± 0.0064
14 | BE3C:PAI-I | -0.0045 ± 0.047 | -0.013 ± 0.017 | -0.012 ± 0.02
15 | MyoF:TIMP-1 | -0.0385 ± 0.019 | -0.027 ± 0.014 | -0.017
16 | CASM3C:CD142/Tissue Factor | -0.021 ± 0.016 | -0.012 ± 0.0028 | 0.0135 ± 0.026
17 | lMphg:CD106/VCAM-1 | -0.025 ± 0.0028 | -0.0055 ± 0.025 | -0.028 ± 0.042
18 | MyoF:Collagen IV | 0.0175 ± 0.0021 | 0.0075 ± 0.0078 | 0.0325 ± 0.04
19 | MyoF:alpha-SM Actin | 0.0035 ± 0.0021 | -0.01 ± 0.0014 | 0.0005 ± 0.021
20 | MyoF:Decorin | 0.009 ± 0.011 | 0.0095 ± 0.018 | 0.03 ± 0.042
